From ChEMBL document CHEMBL4219207, “Reversible, orally available ADP receptor (P2Y12) antagonists Part I: Hit to lead process” (Bioorg Med Chem Lett, 2018)

What was measured:
[1] = molecular target: T1, P2Y purinoceptor 12 (Homo sapiens, UniProt Q9H244); experiment: Displacement of [3H]2MeSADP from P2Y12 receptor in human platelets after 60 mins by TopCount scintillation counting method
[2] = Cmax in Sprague-Dawley rat at 2 mg/kg, po via gavage; format: ADME, organism-based; set-up: dose 2 mg/kg, route oral; details: in vivo
[3] = Oral bioavailability in Sprague-Dawley rat at 2 mg/kg via gavage; format: ADME, organism-based; details: in vivo
[4] = Plasma concentration in Sprague-Dawley rat at 2 mg/kg, po via gavage after 3 hrs using sample obtained from jugular vein; format: ADME, organism-based
[5] = Plasma concentration in Sprague-Dawley rat at 2 mg/kg, po via gavage after 1 hr using sample obtained from jugular vein; format: ADME, organism-based
[6] = Plasma concentration in Sprague-Dawley rat at 2 mg/kg, po via gavage after 1 hr using sample obtained from portal vein; format: ADME, organism-based
[7] = Plasma concentration in Sprague-Dawley rat at 2 mg/kg, po via gavage after 3 hrs using sample obtained from portal vein; format: ADME, organism-based
[8] = molecular target: T1, P2Y purinoceptor 12; experiment: Competitive/reversible antagonist activity at P2Y12 receptor in platelets (unknown origin) assessed as inhibition of ADP-induced platelet aggregation; format: functional
[9] = Permeability in human Caco2 cells; format: ADME, cell-based; details: Caco-2, read-out: permeability
[10] = Metabolic stability in rat liver microsomes assessed as parent compound remaining at 3000 nM; format: ADME, microsome; details: read-out: Stability
[11] = Half life in Sprague-Dawley rat at 2 mg/kg, po via gavage; format: ADME, organism-based; details: in vivo
[12] = Metabolic stability in dog liver microsomes assessed as parent compound remaining at 3000 nM; format: ADME, Canis lupus familiaris, microsome; details: read-out: Stability
[13] = Metabolic stability in human liver microsomes assessed as parent compound remaining at 3000 nM; format: ADME, microsome; details: read-out: Stability

T1 sequence (Q9H244 whole entry): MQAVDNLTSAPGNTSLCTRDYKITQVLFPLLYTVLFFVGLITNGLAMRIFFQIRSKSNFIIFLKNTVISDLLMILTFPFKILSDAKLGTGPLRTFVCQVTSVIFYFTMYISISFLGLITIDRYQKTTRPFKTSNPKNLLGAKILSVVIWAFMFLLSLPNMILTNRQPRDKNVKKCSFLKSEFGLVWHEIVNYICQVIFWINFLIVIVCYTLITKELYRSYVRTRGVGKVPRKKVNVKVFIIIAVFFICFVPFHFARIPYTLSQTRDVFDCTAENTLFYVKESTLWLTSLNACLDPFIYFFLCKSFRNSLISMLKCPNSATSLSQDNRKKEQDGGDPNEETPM

SMILES	IC50 [1] [nM]	further results
CCOC(=O)N1CCN(C(=O)[C@H](Cc2c[nH]c3ccccc23)NC(=O)c2cc(OC)c3ccccc3n2)CC1	7900	–
CCOC(=O)N1CCN(C(=O)[C@H](CCCCN)NC(=O)c2cc(OC)c3ccccc3n2)CC1	26000	–
CCOC(=O)N1CCN(C(=O)CNC(=O)c2cc(OC)c3ccccc3n2)[C@H](C)C1	4500	–
CCOC(=O)N1CCN(C(=O)CNC(=O)c2cc(OC)c3ccccc3n2)C[C@H]1C	4300	–
CCOC(=O)N1CCN(C(=O)[C@H](Cc2ccccc2)NC(=O)c2cc(OC)c3ccccc3n2)CC1	8600	–
CCOC(=O)N1CCN(C(=O)CNC(=O)c2cc(OCc3ccccc3)c3ccccc3n2)CC1	> 3000	–
CCOC(=O)N1CCN(C(=O)CNC(=O)c2cc(OC)c3ccccc3n2)CC1	690	Cmax [2]: 1200 nM; bioavailability [3]: 42%
CCc1ccc(C(=O)N2CCN(C(=O)CNC(=O)c3cc(OC)c4ccccc4n3)CC2)cc1	1800	–
CCOC(=O)N1CCN(C(=O)CNC(=O)c2cc(O)c3ccccc3n2)CC1	> 2000	–
CCOC(=O)N1CCN(C(=O)CNC(=O)C=C2c3ccccc3-c3ccccc32)CC1	860	Cmax [2]: 2700 nM
CCOC(=O)N1CCN(C(=O)CNC(=O)c2cc(OCC)c3ccccc3n2)CC1	840	–
CCOC(=O)N1CCN(C(=O)CNC(=O)c2ccc3ccccc3c2)CC1	1800	Cmax [2]: 1500 nM
CCOC(=O)N1CCN(C(=O)[C@@H](CSCC(=O)O)NC(=O)c2cc(OC)c3ccccc3n2)CC1	190	–
COc1cc(C(=O)NCC(=O)N2CCN(C(=O)NC(C)(C)C)CC2)nc2ccccc12	910	–
CCOC(=O)N1CCN(C(=O)CNC(=O)c2cc(OC)c3ccccc3n2)C[C@@H]1C	1700	–
CCOC(=O)N1CCN(C(=O)CNC(=O)c2cc(OC)c3ccccc3n2)[C@@H](C)C1	1100	–
CCOC(=O)N1CCN(C(=O)[C@H](CC(=O)NCC(=O)O)NC(=O)c2cc(OC)c3ccccc3n2)CC1	1100	–
COc1cc(C(=O)NCC(=O)N2CCN(c3cccc(C)c3)CC2)nc2ccccc12	890	–
CCOC(=O)N1CCN(C(=O)CN(C)C(=O)c2cc(OC)c3ccccc3n2)CC1	21000	–
CCOC(=O)N1CCN(C(=O)[C@H](Cc2cnc[nH]2)NC(=O)c2cc(OC)c3ccccc3n2)CC1	1500	–
COC(=O)N1CCN(C(=O)CNC(=O)c2cc(OC)c3ccccc3n2)CC1	> 3000	–
CCOC(=O)N1CCN(C(=O)[C@@H](NC(=O)c2cc(OC)c3ccccc3n2)C(C)C)CC1	1500	–
CCCOc1cc(C(=O)NCC(=O)N2CCN(C(=O)OCC)CC2)nc2ccccc12	520	–
CCCCCC(=O)N1CCN(C(=O)CNC(=O)c2cc(OC)c3ccccc3n2)CC1	1200	–

The next lines start with results.

IC50 [1] [nM]	SMILES	further results
14000	CCOC(=O)N1CCN(C(=O)[C@@H](C)NC(=O)c2cc(OC)c3ccccc3n2)CC1	–
18000	CCOC(=O)N1CCN(C(=O)[C@@H](CC(=O)O)NC(=O)c2cc(OC)c3ccccc3n2)CC1	–
1100	CCOC(=O)N1CCN(C(=O)[C@H](CO)NC(=O)c2cc(OC)c3ccccc3n2)CC1	–
2100	CCOC(=O)N1CCN(C(=O)[C@H](CC(N)=O)NC(=O)c2cc(OC)c3ccccc3n2)CC1	–
150	CCOC(=O)N1CCN(C(=O)[C@H](CC(=O)O)NC(=O)c2cc(OC)c3ccccc3n2)CC1	concentration at 3 h [4]: 200 nM; concentration at 1 h [5]: 270 nM; concentration at 1 h [6]: 410 nM; concentration at 3 h [7]: 380 nM
2500	CCOC(=O)N1CCN(C(=O)[C@H](CCC(N)=O)NC(=O)c2cc(OC)c3ccccc3n2)CC1	–
270	CCOC(=O)N1CCN(C(=O)[C@H](CCCC(=O)O)NC(=O)c2cc(OC)c3ccccc3n2)CC1	–
22000	CCOC(=O)N1CCN(C(=O)[C@@H](CCC(=O)O)NC(=O)c2cc(OC)c3ccccc3n2)CC1	–
1900	CCOC(=O)N1CCN(C(=O)[C@H](C)NC(=O)c2cc(OC)c3ccccc3n2)CC1	–
200	CCOC(=O)N1CCN(C(=O)[C@H](COCC(=O)O)NC(=O)c2cc(OC)c3ccccc3n2)CC1	–
86	CCOC(=O)N1CCN(C(=O)[C@H](CCC(=O)O)NC(=O)c2cc(OC)c3ccccc3n2)CC1	Kb [8]: 94 nM; concentration at 3 h [4]: 100 nM; concentration at 1 h [5]: 120 nM; Papp [9]: 0.166 ×10⁻⁶ cm/s; concentration at 1 h [6]: 340 nM; Cmax [2]: 120 nM; remaining at 3 µM [10]: > 90%; half-life [11]: 1.2 h; concentration at 3 h [7]: 340 nM; remaining at 3 µM [12]: > 90%; remaining at 3 µM [13]: > 90%
